The source of these data is patent US20160151410A1, “CLEARANCE OF BIOACTIVE LIPIDS FROM MEMBRANE STRUCTURES BY CYCLODEXTRINS” (The Trustees of Columbia University in the City of New York, priority 2013, published 2016).

In series [1] the test system is rabbit cornea after alkali burn. The series is described as follows: Rabbit corneal neovascularization by alkali burn. In kind it is in vivo. The method, then:
Alkali burn on central cornea was performed with 6 mm filter paper disc wetted with 8 μl of 1M NaOH. Cornea were then extensively washed with PBS, followed by treatment with control formula (left eye) and cyclodextrin formula (right eye) as described in Materials and Methods. The bottom two pictures are fluorescein angiograms showing the leaking new vessels in the cornea. White arrows in pictures show corneal neovascularization.
3 New Zealand white rabbits, aged 4-5 months and weighing 1.8-2.6 kg, were obtained from Charles River Laboratories (Wilmington, Mass.) and acclimatized for several weeks before the experiments started. All of the rabbits were anesthetized using ketamine (42 mg/kg) and xylazine (7 mg/kg) intramuscularly. 0.5% proparacaine hydrochloride (Akorn, Inc. Lake Forest, Ill.) was applied topically. Alkali burn on central cornea of both eyes was performed with 6 mm round disc of Whatman No. 1 filter paper wetted with […] of 1M NaOH for exactly 1 minute, filter paper was then removed and the cornea was extensively irrigated with 200 ml of PBS for 10 minutes. Left eye and right eye were then treated with control formula (6 mg/ml of POPC liposome in PBS) and cyclodextrin formula (50 mM HPαCD and 16.7 mM HPβCD in control formula), respectively. […]

The test system of another series is ARPE-19 cells. It counts as cell-based. The method, then: (A, B) 40-50% confluent ARPE-19 cells in 96-well plate were cultured with serum-free medium for 24 hours, then incubated with 0.1 ml of serum-free medium containing 0-100 μM 1-Palmitoyl-sn-glycero-3-phosphocholine (LPC) for 22 hours. Cell morphology of control cells and 100 μM LPC treated cells was observed under a microscope, as shown in (B). The cells were then incubated with 0.15 ml of serum-free medium containing 0.5 mg/ml MTT at 37° C. for 2 hours. Formation of formazan is detected at 540 nm with 0.1 ml of DMSO as solvent (A). (C) As performed in (A), but with 100 μM LPC pre-incubated for 1 hour with 0-20 mM HPαCD, significant protection of HPαCD on ARPE-19 cells was observed when used at 0.5 mM or greater in medium (marked with *).
Human retinal pigment epithelial cell line, ARPE-19, was purchased from ATCC (Manassas, Va.). The cells were cultured in Dulbecco's modified Eagle's medium supplemented with 10% of heat-inactivated fetal bovine serum (FBS), 100 IU/ml of penicillin, and […] of streptomycin (all cell culture products from Invitrogen-Gibco, Rockville, Md.). Cells were maintained at 37° C. in a 5% CO2 incubator with medium change every 3-4 days. […]
Cell viability was determined with the colorimetric MTT metabolic activity assay. […] After removal of cell culture medium, formation of formazan from MTT reduction was detected at 540 nm with 0.1 ml of DMSO as solvent.

For series [2], the system named is lysophospholipids from LIPC-digested human LDL. The experiment in a line: Extraction of lysophospholipids from LIPC-digested LDL by cyclodextrins, read out as complement C3 fixation. It counts as biochemical. As to conditions: for complement activation after cyclodextrin extraction of LIPC-digested LDL: 20 mM cyclodextrin. As for the experimental part: Immobilized LDL was digested with LIPC, then 20 mM of different cyclodextrins (A), or 0-20 mM HPαCD (B), or 20 mM HPαCD (C), or 2 mM of HPαCD in combination with 0.5 mg/ml of native LDL (D) are used for 20 hours extraction (A, B, D), or 0-20 hours extraction (C). Complement activation with diluted native human serum was then performed. MβCD—methyl-β-cyclodextrin; HPβCD—hydroxypropyl-β-cyclodextrin.
(§1) 96-well NUNC MaxiSorp plates were coated with 40 μl of human LDL, VLDL, or NaOH-hydrolyzed LDL, all at 200 μg/ml in PBS, at 4° C. overnight then 37° C. for 1 hour, and remaining binding sites were blocked with 3% BSA in PBS at 37° C. for 1 hour. The wells were washed and then incubated with 40 μl of LIPC or CEase in PBS containing 2% BSA at 37° C. for 1 or 2 hours as indicated in Results section, and the degradation reaction was stopped by washing the plate with PBS. For complement system activation, the resulted plate was incubated with 20 μl of 1:1 diluted human sera at 21° C. for 30 minutes. The diluent for serum dilution was PBS containing calcium and magnesium, and human sera that were utilized in our study were native serum, C1q-depleted serum, factor B-depleted serum, native serum with addition of 10 mM of MgCl2 and 20 mM EGTA (Mg-EGTA), and native serum with addition of 10 mM EDTA.
After thorough washing of the plate, C3 fixation and final membrane attack complex formation on the plate were determined with anti-human C3d antibody and anti-human C5b-9 antibody, in combination with HRP-conjugated secondary antibody, respectively. The monoclonal anti-human C3d antibody is reactive to all C3d-containing fragments of C3, but not with C3 itself, so it detects C3 fixation on the plate and not C3 absorption. The final peroxidase activity was monitored at 450 nm with 3,3′,5,5′-tetramethyl-benzidine and hydrogen peroxide as substrates after 10 or 15 minutes reaction at room temperature.
We tested several cyclodextrins for the ability to extract lysophospholipids from LIPC-digested human LDL. Since lysophospholipid level in lipoprotein is directly related to complement C3 fixation, we use C3 fixation as an indicative parameter for levels of lysophospholipids in lipoprotein. […] We also tested HPαCD upon shuttling of lysophospholipids between LIPC-digested LDL and native LDL, a biological feature of lipid transport (FIG. 4D).

In series [3] the test system is classical pathway of complement system. The series is described as follows: Complement activation (C3 fixation) by LIPC- or CEase-digested immobilized LDL with human serum. It counts as biochemical. As for the experimental part: 96-well MaxiSorp plates were coated with fresh human LDL (A, D, E), VLDL (B), or NaOH-hydrolyzed LDL (C). After blocking with BSA, the plates, except (C), were digested with LIPC. To test complement activation, the plates were incubated with diluted native human serum (N), C1q-depleted human serum (Cd), factor B-depleted human serum (Bd), or human serum containing Mg-EGTA (ME). C3 fixation on the plate was detected with a monoclonal anti-C3d antibody followed by HRP-conjugated secondary antibody. Specific conditions for LIPC digestion and HRP-catalyzed color development of each experiment were outlined as following: LIPC was used at 10 μg/ml for (A, B, E), 0-50 μg/ml for (D), and no LIPC for (C). LIPC degradation was 1 hour for (D), 2 hours for (A, B), and 0-2 hours for (E). Color development was 15 minutes for (A, B, C, E) and 10 minutes for (D). For NaOH hydrolysis of LDL, 1.35 mg/ml of LDL was incubated in 0.15M NaOH solution at 25° C. for up to 60 minutes. Aliquots were taken out and neutralized with 0.15M HCl at 1, 10, 20, 60 minutes.
LIPC and CEase, both having 8 μUnits of phospholipase A1 activity but having 3 μUnits and 8125 μUnits of triglyceride hydrolase activity respectively, were used for 2 hours digestion of immobilized LDL. Complement activation with diluted native human serum is then determined as in FIG. 1. The HRP-catalyzed color development was 15 minutes.
Human LDL coating and 1 hour (C) or 2 hours (A, B) LIPC digestion was performed as described in FIG. 1. (A) For complement activation, 0-50 μM of phosphocholine was added into diluted native human serum. […]
(§2) After thorough washing of the plate, C3 fixation and final membrane attack complex formation on the plate were determined with anti-human C3d antibody and anti-human C5b-9 antibody, in combination with HRP-conjugated secondary antibody, respectively. […] The final peroxidase activity was monitored at 450 nm with 3,3′,5,5′-tetramethyl-benzidine and hydrogen peroxide as substrates after 10 or 15 minutes reaction at room temperature.

For a further series, the system named is C5b-9. The experiment in a line: Terminal complement complex (C5b-9) formation by LIPC-digested LDL. It counts as biochemical. As to conditions: human serum with additional CRP. As for the experimental part: Immobilized LDL was digested by LIPC and then incubated with human serum with or without additional CRP. C3 fixation (A) and C5b-9 formation (B) was determined by specific primary and HRP-conjugated secondary antibodies.
as §1, with “The diluent for serum dilution was PBS containing calcium and magnesium, and human sera that were utilized in our study were native serum, C1q-depleted serum, factor B-depleted serum, native serum with addition of 10 mM of MgCl2 and 20 mM EGTA (Mg-EGTA), and native serum with addition of 10 mM EDTA.” left out
as §2

Entries after “also recorded” stand apart in the source; their conditions may differ.

As to 2-hydroxypropyl-α-cyclodextrin [HPαCD], the “neovascularization area and vessel length” value in series [1] (FIG. 7 representative result) is “reduced dramatically”. In series [1] (topical after alkali burn, right eye vs control formula left eye, three rabbits), the “inhibition of corneal neovascularization” value is reported as “dramatic effect of HPαCD extraction on inhibition of corneal neovascularization”. Besides, the “HPαCD concentration giving significant protection of ARPE-19 cells” value with ARPE-19 cells (100 μM LPC pre-incubated 1 hour with 0-20 mM HPαCD) was not below 0.5 mM. The “extraction of complement-activating lysophospholipids, dose and time dependence” value in series [2] (0-20 mM HPαCD for 20 hours, 20 mM HPαCD for 0-20 hours) was “dose- and time-dependent”. The “extraction of lysophospholipids, HPαCD alone at low level” value in series [2] (2 mM HPαCD alone, 20 hours extraction) is reported as “cannot extract much lysophospholipids”. Also, the “extraction of lysophospholipids, HPαCD in combination with native LDL” value in series [2] (2 mM HPαCD with 0.5 mg/ml native LDL, 20 hours extraction) was “extract the most lysophospholipids”. The “complement activation after cyclodextrin extraction of LIPC-digested LDL” value (“complement activation … of LIPC-digested LDL” for short) in series [2] (20 hours extraction) is on record as “significantly less complement activation; also recorded: Significant extraction of lysophospholipids”.
For `OC[C@H]1O[C@@H]2O[C@H]3[C@H](O)[C@@H](O)[C@@H](O[C@H]4[C@H](O)[C@@H](O)[C@@H](O[C@H]5[C@H](O)[C@@H](O)[C@@H](O[C@H]6[C@H](O)[C@@H](O)[C@@H](O[C@H]7[C@H](O)[C@@H](O)[C@@H](O[C@H]8[C@H](O)[C@@H](O)[C@@H](O[C@H]1[C@H](O)[C@H]2O)O[C@@H]8CO)O[C@@H]7CO)O[C@@H]6CO)O[C@@H]5CO)O[C@@H]4CO)O[C@@H]3CO` [β-cyclodextrin, reference compound], in series [2] (20 hours extraction), the “complement activation … of LIPC-digested LDL” value is “much weaker effects”.
Take `OC[C@H]1O[C@@H]2O[C@H]3[C@H](O)[C@@H](O)[C@@H](O[C@H]4[C@H](O)[C@@H](O)[C@@H](O[C@H]5[C@H](O)[C@@H](O)[C@@H](O[C@H]6[C@H](O)[C@@H](O)[C@@H](O[C@H]7[C@H](O)[C@@H](O)[C@@H](O[C@H]1[C@H](O)[C@H]2O)O[C@@H]7CO)O[C@@H]6CO)O[C@@H]5CO)O[C@@H]4CO)O[C@@H]3CO` [α-cyclodextrin, reference compound]: the “complement activation … of LIPC-digested LDL” value in series [2] (20 hours extraction) was “much weaker effects”.
For the molecule “methyl-β-cyclodextrin [reference compound]”, in series [2] (20 hours extraction), the “complement activation … of LIPC-digested LDL” value is “much weaker effects”.
Take “2-hydroxypropyl-β-cyclodextrin [reference compound]”: in series [2] (20 hours extraction), the “complement activation … of LIPC-digested LDL” value is “much weaker effects”.
For `CCCCCCCCCCCCCCCC(=O)OC[C@@H](O)COP(=O)([O-])OCC[N+](C)(C)C` [1-palmitoyl-sn-glycero-3-phosphocholine, reference compound], the “concentration inducing ARPE-19 cell death” value in the series on ARPE-19 cells (serum-free medium, 22 hours, 0-100 μM tested) is on record as not below 20 μM.
In the case of `C[N+](C)(C)CCOP(=O)([O-])O` [phosphocholine, reference compound], the “complement activation by LIPC-digested LDL, phosphocholine added into serum” value in series [3] (0-50 μM phosphocholine in diluted native human serum) was “significantly decreases complement activation”.

B1: CRP: purified human CRP, binding protein of lysophosphatidylcholine (protein, UniProt P02741 19-224, looked up)
C-reactive protein: QTDMSRKAFVFPKESDTSYVSLKAPLTKPLKAFTVCLHFYTELSSTRGYSIFSYATKRQDNEILIFWSKDIGYSFTVGGSEILFEVPEVTVAPVHICTSWESASGIVEFWVDGKPRVRKSLKKGYTVGAEASIILGQEQDSFGGNFEGSQSLVGDIGNVNMWDFVLSPDEINTIYLGGPFSPNVLNWRALKYEVQGEVFTKPQLWP
Turning to B1, the “C3 fixation by LIPC-digested LDL with additional CRP” value in series [3] (native human serum supplemented with purified human CRP) is reported as “dose-dependently enhances its activity on complement activation; also recorded: enhances C3 fixation”. In addition, the “terminal complement complex formation with additional CRP” value with C5b-9 was “blocks the terminal complement complex formation”.
